According to patent publication US12214076B2, “Drug delivery vehicles for atherosclerosis nanomedicine” (Northwestern University, priority 2019, dated 2025):
Peptide text beside a SMILES is read from it. * marks the point of attachment. Palmitoyl = CCCCCCCCCCCCCCCC(=O)*

Columns and labels:
[1] = system: J774.2 murine macrophages; assay: Nitric oxide production of stimulated macrophages; format: cell-based, mouse; details: 24 hours, LPS and stimulated, 32 μM Ac2-26 or epitope equivalent
Procedure: Macrophage culture and characterization: J774.2 murine macrophages (Sigma-Aldrich) were expanded at 4-9×10^5 cells/mL in growth media consisting of Dulbecco's Modified Eagle's Medium (Sigma-Aldrich) containing 4.5 g/L glucose, 2 mM L-glutamine, 10% v/v FBS, 100 U/m penicillin, and 100 μg/mL streptomycin. Cells were passaged using Accutase™ (StemCell Technologies) and used at passage 6-9 for all experiments. The cells were detached with Accutase™ and gentle scraping, counted, and re-suspended in flow cytometry buffer containing 2% w/v bovine serum albumin (BSA, heat shock fraction free of proteases, globulin, and fatty acids, Sigma-Aldrich) and 0.1% w/v sodium azide (Sigma-Aldrich). To minimize non-specific binding of immunoglobin to Fc receptors, macrophages were incubated with anti-mouse CD16/32 antibody (TrueStain FcX™, Biolegend) at 1 μg/1×10^5 cells for 10 minutes at 4° C. APC anti-mouse CD11b antibody or APC Armenian hamster IgG isotype control antibody (Biolegend) were added at 0.4 μg/1×10^5 cells, FPR2 antibody (Novus Biologics) was added at […], and all samples were incubated for 30 minutes at 4° C. The cells were washed once with flow cytometry buffer by centrifugation at 300×g. FPR2 samples were further treated with goat anti-rabbit Alexa Fluor 488 secondary antibody (Invitrogen) at 2 μg/1×10^5 cells for 20 minutes at 4° C., followed by a wash step. Unstained macrophages served as controls and contained 7AAD viability staining solution (Biolegend) at 0.1 μg/1×10^5. All samples were suspended in 4% paraformaldehyde (Electron Microscopy Sciences) in PBS until analysis. […] All samples were analyzed using Attune NxT Acoustic Focusing Cytometer (Thermo Fisher) with at least 2000 events counted per condition.
Therapeutic effects of ApoA1-Ac2-26 PAs: 10% ROS- and MMP-Ac2-26 PAs, as well as Ac2-26 peptide were added together with 10 μg/mL LPS at 32 μM Ac2-26 to macrophages. […] Concerning the quantification of NO, the reducing solution made of KI in acetic acid and water provides an excess of I− that reacts with nitrite yielding ·NO. […]

[2] = TEM characterization of PA nanofibers for diameter and length (Example 3); format: physicochemical; details: 30 measurements from three images
Procedure: Samples at 1 mM in PBS were prepared for TEM by plating on copper supports covered with thin carbon foil 400-mesh that were treated with glow discharge. […] Due to the overlapping fibers, automated tools including FiberApp could not be used to analyze the nanofibers. Instead, the TEM images were analyzed manually for nanofiber diameter and length using ImageJ software. Cryogenic TEM of samples was also performed using a JEOL 1230 at 100 kV accelerating voltage and Gatan 831 CCD camera. […] Samples were prepared at 1 mM in PBS blotted once for 3 seconds before plunging into liquid ethane using a Vitrobot Mark III (FEI) vitrification robot.

[3] = Treatment study serum chemistry (toxicology analysis); format: in vivo, mouse; details: mouse, in vivo
Procedure: Blood samples were collected at the end of the treatment study for toxicology analysis. Mice were euthanized three days after their 16th treatment.
Tissue processing and imaging: Mice were sacrificed and euthanized under inhaled isoflurane anesthesia by diaphragm disruption and exsanguination. Phlebotomy was performed through direct right ventricular cardiac puncture using a 1 mL syringe and 25 G needle. Perfusion was performed through left ventricular cardiac puncture with 10 mL PBS and 10 mL 10% sucrose solution. The lungs, liver, spleen, kidney, aortic root, aortic arch, and descending aorta were harvested and stored in 10% sucrose for 20 minutes. Organs and vessels were then flash-frozen in Optimal Cutting Temperature embedding medium 4583 (Tissue-Tek®) with liquid nitrogen. Frozen specimens were stored at −80° C. and cryosectioned at […]. Confocal microscopy was performed on a Nikon AIR microscope. Two sets of images were acquired with a 10× Plan Fluor NA 0.3 objective. PAs were identified through quantification of the Alexa Fluor® 546 conjugated dye with 561 nm excitation and a 600/50 nm emission filter.
Statistics: The effect of treatments and sex on atherosclerosis progression in mice was analyzed using one- or two-factor analysis of variance (ANOVA) followed by a post-hoc student's t-test. The toxicological effects of treatments were also analyzed using two-factor ANOVA and a post-hoc student's t-test. Toxicological effects of treatments on liver proteins AST, ALT, and ALP were further analyzed using ordinal logistic regression models of likelihood ratio tests, followed by a post-hoc Wald test

Row | Diameter (nm) Average [2] [nm] | Diameter (nm) Median [2] [nm] | Length (nm) Average [2] [nm] | Length (nm) Median [2] [nm] | Diameter (nm) Average ([2]; listed as ApoA1) [nm] | Length (nm) Median ([2]; listed as ApoA1) [nm] | Compound | macrophage activation, nitric oxide production relative to the stimulated control [1] | Creatine [3] [U/L] | aspartate aminotransferase (AST) in the blood in comparison to PBS [3]
1 | – | – | – | – | – | – | 10% MMP-Ac2-26 PA: co-assembly of 10 mol % MMP-Ac2-26 PA, 50 mol % E2 filler PA, and 40% ApoA1 PA (VVAAEEGGGPQGIWGQGKAMVSEFLKQAWFIENEEQEYVQTVK) | significantly reduced | – | –
2 | 9.6 | 9.5 | 626.9 | 615.9 | 9.6±1.7 | 616 | CCCCCCCCCCCCCCCC(=O)N[C@H](C(=O)N[C@H](C(=O)N[C@@H](C)C(=O)N[C@@H](C)C(=O)N[C@@H](CCC(=O)O)C(=O)N[C@@H](CCC(=O)O)C(=O)NCC(=O)N[C@@H](CC(=O)O)C(=O)N[C@@H](Cc1c[nH]c2ccccc12)C(=O)N[C@@H](Cc1ccccc1)C(=O)N[C@@H](CCCCN)C(=O)N[C@@H](C)C(=O)N[C@@H](Cc1ccccc1)C(=O)N[C@@H](Cc1ccc(O)cc1)C(=O)N[C@@H](CC(=O)O)C(=O)N[C@@H](CCCCN)C(=O)N[C@H](C(=O)N[C@@H](C)C(=O)N[C@@H](CCC(=O)O)C(=O)N[C@@H](CCCCN)C(=O)N[C@@H](Cc1ccccc1)C(=O)N[C@@H](CCCCN)C(=O)N[C@@H](CCC(=O)O)C(=O)N[C@@H](C)C(=O)N[C@@H](Cc1ccccc1)C(N)=O)C(C)C)C(C)C)C(C)C [ApoA1 PA] (Palmitoyl-VVAAEEGDWFKAFYDKVAEKFKEAF-NH2) | did not cause significant decreases in nitric oxide production | 0 | Neither ApoA1-LXR PAs nor ApoA1 PAs increased AST levels
